Results from publication PMC6359284, “Identification, Characterization, and Optimization of Integrin αvβ6-Targeting Peptides from a One-Bead One-Compound (OBOC) Library: Towards the Development of Positron Emission Tomography (PET) Imaging Agents” (Molecules, 2019).
Several values for one entry are separate records, joined by “and”; a condition that tells them apart may be missing. Equal values may be shown once. Read-outs that look alike come from different tables or passages of the source. Square brackets hold non-standard residues; d marks the D form. Primed or numbered codes have the meaning given here. Ends that are not written are not given here. Peptide text beside a SMILES is read from it. * marks the point of attachment. (18F)FB = 4-[18F]fluorobenzoyl, radiolabelled form of FB, O=C(c1ccc([18F])cc1)*; PEG12 = NCCOCCOCCOCCOCCOCCOCCOCCOCCOCCOCCOCCOCCC(=O)O; Benzoyl(4-F) = O=C(c1ccc(F)cc1)*; PEG28′ = not defined here

Tests used:
integrin αvβ6 = target: T1, integrin αvβ6 (Homo sapiens, UniProt P06756+P18564); test: Competitive binding ELISA, purified integrin αvβ6; settings: for selectivity ratio for integrin αvβ6 compared to αvβ5: from ELISA IC50 values
T1 construct: purchased R&D Systems
Protocol: (§1) Competitive binding ELISAs were performed to evaluate the binding affinity of each peptide relative to each integrin’s biotinylated natural ligand (transforming growth factor beta 1 latency-associated peptide or TGFβ1-LAP (G&P Biosciences, Santa Clara, CA, USA) for integrins αvβ6 and αvβ8, fibronectin (Thermo Fisher, Waltham, MA, USA) for integrin αvβ1, and vitronectin (Thermo Fisher) for integrins αvβ3 and αvβ5), as previously described. In brief, anti-αv antibody (P2W7, 5 μg/mL, Abcam) was plated (50 μL/well) at 37 °C for 1 h, washed with PBS (3×), and blocked overnight with blocking buffer (300 μL/well, 5% bovine serum albumin (BSA), 1% Tween 20, in PBS), followed by washing with PBS (3×). […] The plate was incubated at 37 °C for 1 h, then washed with wash buffer (3×). A 1:1000 dilution of ExtrAvidin Horseradish Peroxidase (HRP) was added to each well (50 μL/well), incubated at 37 °C for 1 h, and then washed with wash buffer (3×). The ExtrAvidin HRP was detected with 3,3′,5,5′-tetramethylbenzidine (50 μL/well, Promega, Madison, WI, USA) for 10–15 min at room temperature. The reaction was stopped by adding 1N H2SO4 (50 μL/well) and the absorbance was measured in a Multiscan Ascent plate reader (Thermo Fisher) at 450 nm. Half-maximal inhibitory concentration (IC50) of peptides was determined fitting to sigmoidal dose-response model in GraphPad Prism 5.0 (San Diego, CA, USA).

DX3puroβ6 (αvβ6+) cells = test: 18F-radiolabeled peptide cell binding assay, αvβ6+ cells; format: cell-based; settings: 60 min incubation at 37 °C, n = 3
Protocol: (§2) Cell binding assay was performed as previously described. […] The ^18F-radiolabeled peptide was prepared in a stock solution of 148 kBq in 1 mL PBS (pH 7.2). Aliquots of each ^18F-radiolabeled peptide (50 μL, 7.4 kBq per sample) were added to each cell sample and incubated at 37 °C for 1 h with frequent suspension. After incubation, each sample was centrifuged and the supernatant was collected. The cell pellet was washed with 500 μL PBS, centrifuged, and the supernatant was combined with the previously collected supernatant samples. The cell pellet was resuspended in 600 μL PBS and transferred to gamma counter tubes. All pellet and supernatant samples were measured in a Wizard 1470 gamma counter (Perkin Elmer, Waltham, MA, USA). Cell binding percentage for each cell line was calculated as the radioactivity associated, with pellet divided by the total radioactivity associated with both the pellet and supernatant.

[1] = Serum stability assay in mouse serum; format: in vitro ADME; settings: 37 °C, radio-RP-HPLC
Protocol: Peptide stability was evaluated in mouse serum as previously described. In brief, formulated ^18F-radiolabeled peptide (~3.7 MBq in PBS) was incubated with mouse serum (500 μL, Sigma Aldrich, St. Louis, MO) at 37 °C for 1 h.

integrin αvβ8 = target: T2, integrin αvβ8 (Homo sapiens, UniProt P06756+P26012); test: Competitive binding ELISA, purified integrin αvβ8; settings: competitive ELISA vs biotinylated TGFβ1-LAP, n = 3
T2 construct: purchased R&D Systems
Protocol: as §1

integrin αvβ3 = target: T3, integrin αvβ3 (Homo sapiens, UniProt P05106+P06756); test: Competitive binding ELISA, purified integrin αvβ3; settings: competitive ELISA vs biotinylated vitronectin, n = 3
T3 construct: purchased R&D Systems
Protocol: as §1

integrin αvβ1 = target: T4, integrin αvβ1 (Homo sapiens, UniProt P05556+P06756); test: Competitive binding ELISA, purified integrin αvβ1; settings: competitive ELISA vs biotinylated fibronectin, n = 3
T4 construct: purchased R&D Systems
Protocol: as §1

DX3puro (αvβ6−) cells = test: 18F-radiolabeled peptide cell binding assay, αvβ6− cells; format: cell-based; settings: 60 min incubation at 37 °C, n = 3
Protocol: as §2

[2] = competitive ELISA vs biotinylated TGFβ1-LAP, n = 3, read-out: IC50 (μM) αvβ6

| Compound | IC50 (integrin αvβ6; [2]) [µM] | % binding to DX3puroβ6 (αvβ6+) cells (DX3puroβ6 (αvβ6+) cells) | % Intact (1 h) [1] | % binding to DX3puro (αvβ6−) cells (DX3puro (αvβ6−) cells) | other results |
| --- | --- | --- | --- | --- | --- |
| CC(C)C[C@H](NC(=O)[C@H](Cc1ccc(O)cc1)NC(=O)[C@@H](NC(=O)[C@H](CC(C)C)NC(=O)[C@H](CC(=O)O)NC(=O)CNC(=O)[C@@H](NC(=O)c1ccc(F)cc1)C(C)C)[C@@H](C)O)C(=O)N[C@@H](CCCCN)C(=O)N[C@@H](CCCCN)C(N)=O [1a] ({Benzoyl(4-F)}-VGDLTYLKK-NH2) | 0.81 ± 0.09 |  |  |  |  |
| CC(=O)N[C@H](C(=O)NCC(=O)N[C@@H](CC(=O)O)C(=O)N[C@@H](CC(C)C)C(=O)N[C@H](C(=O)N[C@@H](Cc1ccc(O)cc1)C(=O)N[C@@H](CC(C)C)C(=O)N[C@@H](CCCCN)C(=O)N[C@@H](CCCCNC(=O)c1ccc(F)cc1)C(N)=O)[C@@H](C)O)C(C)C [1b] | > 100 |  |  |  |  |
| CN[C@H](C(=O)NCC(=O)N[C@@H](CC(=O)O)C(=O)N[C@@H](CC(C)C)C(=O)N[C@H](C(=O)N[C@@H](Cc1ccc(O)cc1)C(=O)N[C@@H](CC(C)C)C(=O)N[C@@H](CCCCN)C(=O)N[C@@H](CCCCNC(=O)c1ccc(F)cc1)C(N)=O)[C@@H](C)O)C(C)C [1c] | > 5 |  |  |  |  |
| CC(C)C[C@H](NC(=O)[C@H](Cc1ccc(O)cc1)NC(=O)[C@@H](NC(=O)[C@H](CC(C)C)NC(=O)[C@H](CC(=O)O)NC(=O)CNC(=O)[C@@H](NC(=O)CCOCCOCCOCCOCCOCCOCCOCCOCCOCCOCCOCCOCCN)C(C)C)[C@@H](C)O)C(=O)N[C@@H](CCCCN)C(=O)N[C@@H](CCCCNC(=O)c1ccc(F)cc1)C(N)=O [1d] (H-[PEG12]VGDLTYLKK(Benzoyl(4-F))-NH2; N-terminus assumed) | > 100 |  |  |  |  |
| CC(C)C[C@H](NC(=O)[C@H](Cc1ccc(O)cc1)NC(=O)[C@@H](NC(=O)[C@H](CC(C)C)NC(=O)[C@H](CC(=O)O)NC(=O)CNC(=O)[C@@H](NC(=O)c1ccc(F)cc1)C(C)C)[C@@H](C)O)C(=O)N[C@@H](CCCCN)C(=O)N[C@@H](CCCCNC(=O)c1ccc(F)cc1)C(N)=O [1e] | 0.84 ± 0.36 |  |  |  |  |
| CC(C)C[C@H](NC(=O)[C@H](Cc1ccc(O)cc1)NC(=O)[C@@H](NC(=O)[C@H](CC(C)C)NC(=O)[C@H](CC(=O)O)NC(=O)CNC(=O)[C@@H](N)C(C)C)[C@@H](C)O)C(=O)N[C@@H](CCCCN)C(=O)N[C@@H](CCCCNC(=O)c1ccc(F)cc1)C(=O)NCCOCCOCCOCCOCCOCCOCCOCCOCCOCCOCCOCCOCCOCCOCCOCCOCCOCCOCCOCCOCCOCCOCCOCCOCCOCCOCCOCCOCCC(N)=O [1f] | 3.7 ± 1 | < 2% | > 95% |  |  |
| CC(=O)N[C@H](C(=O)NCC(=O)N[C@@H](CC(=O)O)C(=O)N[C@@H](CC(C)C)C(=O)N[C@H](C(=O)N[C@@H](Cc1ccc(O)cc1)C(=O)N[C@@H](CC(C)C)C(=O)N[C@@H](CCCCN)C(=O)N[C@@H](CCCCNC(=O)c1ccc(F)cc1)C(=O)NCCOCCOCCOCCOCCOCCOCCOCCOCCOCCOCCOCCOCCOCCOCCOCCOCCOCCOCCOCCOCCOCCOCCOCCOCCOCCOCCOCCOCCC(N)=O)[C@@H](C)O)C(C)C [1g] | > 100 |  |  |  |  |
| CC(C)C[C@H](NC(=O)[C@H](Cc1ccc(O)cc1)NC(=O)[C@@H](NC(=O)[C@H](CC(C)C)NC(=O)[C@H](CC(=O)O)NC(=O)CNC(=O)[C@@H](NC(=O)c1ccc(F)cc1)C(C)C)[C@@H](C)O)C(=O)N[C@@H](CCCCN)C(=O)N[C@@H](CCCCNC(=O)c1ccc(F)cc1)C(=O)NCCOCCOCCOCCOCCOCCOCCOCCOCCOCCOCCOCCOCCOCCOCCOCCOCCOCCOCCOCCOCCOCCOCCOCCOCCOCCOCCOCCOCCC(N)=O [1h] | 1.47 ± 0.23 | < 2% | > 95% |  |  |
| CC(C)C[C@H](NC(=O)[C@H](Cc1ccc(O)cc1)NC(=O)[C@@H](NC(=O)[C@H](CC(C)C)NC(=O)[C@H](CC(=O)O)NC(=O)CNC(=O)[C@@H](N)C(C)C)[C@@H](C)O)C(=O)N[C@@H](CCCCN)C(=O)N[C@@H](CCCCNC(=O)c1ccc(F)cc1)C(N)=O [compound 1] (H-VGDLTYLKK(Benzoyl(4-F))-NH2; N-terminus assumed) |  |  |  |  | selectivity ratio for integrin αvβ6 compared to the other integrins (αvβ1, αvβ3, and αvβ5) (integrin αvβ6): > 200 :1; IC50 (integrin αvβ6; read-out: IC50 (μM) αvβ6): 0.45 ± 0.06 µM; IC50 (integrin αvβ8): 5.3 ± 0.14 µM |
| CSCC[C@H](NC(=O)[C@H](CC(C)C)NC(=O)[C@H](CC(=O)O)NC(=O)CNC(=O)[C@@H](N)CCCNC(=N)N)C(=O)N[C@@H](CCCCN)C(=O)N[C@@H](CC(C)C)C(=O)N[C@@H](C)C(=O)N[C@@H](CCCCNC(=O)c1ccc(F)cc1)C(N)=O [compound 2] (H-RGDLMKLAK(Benzoyl(4-F))-NH2; N-terminus assumed) |  |  |  |  | IC50 (integrin αvβ6): 0.95 ± 0.17 µM; selectivity ratio for integrin αvβ6 compared to αvβ5 (integrin αvβ6): > 100 :1; IC50 (integrin αvβ8): 2.6 ± 0.35 µM |
| CC(C)C[C@H](NC(=O)[C@H](CC(=O)O)NC(=O)CNC(=O)[C@@H](N)CCCNC(=N)N)C(=O)N[C@@H](C)C(=O)N[C@@H](CC(=O)O)C(=O)N[C@@H](CC(C)C)C(=O)N[C@@H](CCCNC(=N)N)C(=O)N[C@@H](CCCCNC(=O)c1ccc(F)cc1)C(N)=O [compound 3] (H-RGDLADLRK(Benzoyl(4-F))-NH2; N-terminus assumed) |  |  |  |  | selectivity ratio for integrin αvβ6 compared to αvβ5 (integrin αvβ6): > 100 :1 |
| CC[C@H](C)[C@H](NC(=O)CN)C(=O)N[C@@H](CC(=O)O)C(=O)N[C@@H](CC(C)C)C(=O)N[C@H](C(=O)N[C@@H](CO)C(=O)N[C@@H](CC(C)C)C(=O)N[C@H](C(=O)N[C@@H](CCCCNC(=O)c1ccc(F)cc1)C(N)=O)[C@@H](C)O)[C@@H](C)O [compound 4] (H-GIDLTSLTK(Benzoyl(4-F))-NH2; N-terminus assumed) | > 100 |  |  |  | IC50 (integrin αvβ3): > 100 µM |
| CC(C)C[C@H](NC(=O)[C@H](CCC(=O)O)NC(=O)[C@H](CCCNC(=N)N)NC(=O)[C@H](CC(C)C)NC(=O)[C@H](CC(=O)O)NC(=O)CNC(=O)[C@@H](N)CCCNC(=N)N)C(=O)N[C@@H](C)C(=O)N[C@@H](CCCCNC(=O)c1ccc(F)cc1)C(N)=O [compound 5] (H-RGDLRELAK(Benzoyl(4-F))-NH2; N-terminus assumed) |  |  |  |  | IC50 (integrin αvβ1): 1.9 ± 0.3 µM; selectivity ratio for integrin αvβ6 compared to αvβ5 (integrin αvβ6): > 100 :1; IC50 (integrin αvβ6; read-out: IC50 (μM) αvβ6, competitive ELISA vs biotinylated TGFβ1-LAP, n = 3): 0.89 ± 0.14 µM |
| FB-VGDLTYLKK([^18F]FB)-PEG28 ({Benzoyl(4-F)}-VGDLTYLKK((18F)FB)[PEG28′]) [[^18F]1h] |  | less than 2% | > 95% and 95% | less than 2% |  |
| RGDLADLRK([^18F]FB) (RGDLADLRK((18F)FB)) [[^18F]3] |  | 7.7 ± 3.8% | 0% | 5.3 ± 2.8% |  |
| RGDLRELAK([^18F]FB) (RGDLRELAK((18F)FB)) [[^18F]5] |  | 6.4 ± 0.1% | 0% | 5.9 ± 0.8% |  |
| VGDLTYLKK([^18F]FB) (VGDLTYLKK((18F)FB)-NH2) [[^18F]1] |  | 12.8 ± 1.9% | 25% | 11.7 ± 2.2% |  |
| VGDLTYLKK([^18F]FB)-PEG28 (VGDLTYLKK((18F)FB)[PEG28′]) [[^18F]1f] |  | less than 2% | > 95% and 95% | less than 2% |  |
| VGDLTYLKK([^18F]FB)KVART [[^18F]1i] |  | 5.0 ± 0.5% | > 99% and 99% |  |  |
| [^18F]FB-PEG28-A20FMDV2-K16R-PEG28 [reference compound] |  | 77.1 ± 0.1% |  | 1.5 ± 0.1% |  |
| [^18F]FB-VGDLTYLKK ({(18F)FB}-VGDLTYLKK-NH2) [[^18F]1a] |  | less than 2% |  | less than 2% |  |
